{
  "source": "patent US20140315972A1",
  "about": "“RS)-2-(2-oxo-4-phenylpyrrolidin-1-yl)acetamide compound having modulatory activity with a commensurate effect, pharmaceutical substance (variants) and its application, composition (variants) thereof” (priority 2011, published 2014)",
  "key": {"[1]": {"tested_on": "rats", "assay": "Anti-ulcerogenic action under Ds-conditions", "format": "in vivo", "settings": "listed as Phenotropil"}, "[2]": {"tested_on": "patients", "assay": "Seborrhea of scalp and face skin, topical solution", "format": "in vivo, human", "settings": "for Efficacy expressed in points on a 4-point scale (seborrhea): humans", "method": "A study of effect of Phenotropil on the scalp and face skin in seborrhea oleosa and on the scalp skin in dry seborrhea, as well in the mixed form, was performed on mixed groups of both sexes (15-37 years). The 0.1% Phenotropil solution was used. In the group with mixed form, additional Phenotropil tablets were administered at a dose of 100 mg per day (in the morning). The baseline examinations were used as control. The prepared samples were rubbed into the scalp once a day 1 or 2 hours before bedtime. In the case of acneiform rash, the skin was wiped in the morning and evening by cotton pads soaked (as usual lotion) by 0.1% aqueous Phenotropil. Washing the hair using shampoo was not recommended. A neutral baby soap “Alice” by OAO Svoboda and the rinse prepared with 25 ml of lemon juice and 100 mg Phenotropil powder per 1000.0 ml water were used. Studies were conducted for 28 calendar days with monitoring examinations every 14 days. In the dry seborrhea group, three patients withdrew from the study after two weeks due to reluctance to undergo further examination; they found it difficult to comply with the regime of the detergents use. The skin state was assessed by a 4-point system, where 0—absent, 1—the effect intensity less than 50.0%, 2—the effect intensity more than 50.0%, 3—the effect intensity more than 80% but less than 100.0% of the cases."}, "[3]": {"tested_on": "mycobacteria (MTB), strain H37Rv", "assay": "Mycobacteria (MTB) culture growth in vitro", "format": "cell-based", "method": "The presence of the proper anti-inflammatory effect in Phenotropil formed the basis for investigation of the effect of the drug on more complex pathological agents. The effect of different concentrations of Phenotropil on the mycobacteria (MTB) culture growth in vitro according to research standards (test culture—highly virulent laboratory strain H37Rv) was studied. A wide range of drug concentrations was prepared: 1 series—100, 50, 10 μg/ml, 2 series—from 10 to 0.31 μg/ml, and 3 series—from 2 to 0.031 μg/ml. To prepare the matrix solution, the sterile distilled water was used, and the Shkolnikova medium was used to prepare the said concentrations. To assess the growth and morphological properties of the MTB culture, suspended mycobacteria at appropriate concentrations of Phenotropil solution were inoculated on the Lowenstein-Jensen medium and Shkolnikova medium (4 tubes for each point). After 2 weeks, the presence of growth was determined visually in the Shkolnikova medium and smears from the sediment were prepared. The smears were fixed and stained according to Ziehl-Neelsen method. The number of mycobacteria in smears was counted and, based on the results obtained, the concentration of the drug at which the inhibition of the growth was observed was determined. The number of the MTB colonies and their morphological characteristics were evaluated on the Lowenstein-Jensen medium after four weeks from the time of inoculation. Registration of the results was also carried out four weeks after inoculation."}, "[4]": {"tested_on": "rats", "assay": "Acute toxicity, single intragastric administration in immature rats", "format": "in vivo", "settings": "for Dead/total number: rats 30-35 days", "method": "Tables 2, 2.1 and 2.2 present the results of acute toxicity studies of the Compounds with active substance content in at least white outbred male mice (body weight 18-24 g) and white outbred rats 30-35 days of age, of both sexes with a single dose. Calculation of toxic doses was made using the Wilcoxon and Litchfield method. Observations were made over 24 hours and 14 days after a single dose.\nLD50 in rat pups after intragastric administration was not found. Intragastric administration to rat pups of doses of more than 1000 mg/kg is technically impossible due to the small volume of the stomach (Table 2.2)."}, "[5]": {"tested_on": "rats", "assay": "Formalin induced edema, topical application", "format": "in vivo", "method": "To identify and assess the anti-inflammatory action of Phenotropil, a standard technique was used; the carrageenan-induced paw edema in rats (Winter C. et al, 1962). Phenotropil at a dose of 100 mg/kg was administered intragastrically 60 minutes before carrageenan. Control animals received distilled water. Additionally, the topical application by method of formalin induced edema was investigated (subplantar administration of 0.1 ml of 2% formalin solution). Phenotropil for topical use was prepared (1:1) on the standard ointment base carrier at 100 mg/kg of body weight for each animal (150-220 g). The preparation was rubbed in the leg and a gauze patch was applied for 2 hours and 1 hour before the induction of inflammation."}, "[6]": {"assay": "Plasma electrolyte balance at course administration", "format": "in vivo", "settings": "rats"}, "[7]": {"settings": "4-week administration 300 mg/kg"}},
  "note": "Where “and” joins values, the source holds several entries; their conditions need not be identical. Identical values can stand only once. Marks after values point to notes of the source that are not given here.",
  "data": [
    {"smiles": "NC(=O)CN1CC(c2ccccc2)CC1=O", "note": "(racemic) [Compound 1, (RS)-2-(2-oxo-4-phenylpyrrolidine-1-yl)acetamide]", "values": [
      {"measurement": "ulcer number vs control (100)", "setting": "[1]; 25 mg/kg + 5.0% glucose solution, 25 mg/kg", "value": "−45% and −42 * %"},
      {"measurement": "ulcer number vs control (100)", "setting": "[1]; 50 mg/kg + 5.0% glucose solution, 50 mg/kg", "value": "−63% and −63 * %"},
      {"measurement": "ulcer number vs control (100)", "setting": "[1]; 100 mg/kg + 5.0% glucose solution, 100 mg/kg", "value": "−80% and −80 * %"},
      {"measurement": "therapeutic effect compared to control with simultaneous tablets", "setting": "[2]; 0.1% solution + tablets 100 mg per day", "value": 300.0, "unit": "%"},
      {"measurement": "therapeutic effect in seborrhoea compared with control", "setting": "[2]; 0.1% solution, 28 days", "value": 200.0, "unit": "%"},
      {"measurement": "Efficacy expressed in points on a 4-point scale (seborrhea)", "setting": "[2]; DF (dry form), topically 0.1% aqueous solution", "value": "2* (the effect intensity more than 50.0%)"},
      {"measurement": "Efficacy expressed in points on a 4-point scale (seborrhea)", "setting": "[2]; MF (mixed form), oral 100 mg", "value": "1* (the effect intensity less than 50.0%)"},
      {"measurement": "Efficacy expressed in points on a 4-point scale (seborrhea)", "setting": "[2]; MF (mixed form), topically 0.1% aqueous solution + 100 mg orally", "value": "3* (the effect intensity more than 80% but less than 100.0% of the cases)"},
      {"measurement": "Efficacy expressed in points on a 4-point scale (seborrhea)", "setting": "[2]; OF (oily form), topically 0.1% aqueous solution", "value": "2* (the effect intensity more than 50.0%)"},
      {"measurement": "Mean number of MTB colonies", "setting": "[3]; 0.031 ug/ml", "value": "contiguous"},
      {"measurement": "Mean number of MTB colonies", "setting": "[3]; 0.063 ug/ml", "value": "contiguous"},
      {"measurement": "Mean number of MTB colonies", "setting": "[3]; 0.125 ug/ml", "value": 107},
      {"measurement": "Mean number of MTB colonies", "setting": "[3]; 0.250 ug/ml", "value": 97},
      {"measurement": "Mean number of MTB colonies", "setting": "[3]; 0.310 ug/ml", "value": 83},
      {"measurement": "Mean number of MTB colonies", "setting": "[3]; 0.500 ug/ml", "value": 70},
      {"measurement": "Mean number of MTB colonies", "setting": "[3]; 0.630 ug/ml", "value": 65},
      {"measurement": "Mean number of MTB colonies", "setting": "[3]; 1.0 ug/ml", "value": 67},
      {"measurement": "Mean number of MTB colonies", "setting": "[3]; 1.25 ug/ml", "value": 74},
      {"measurement": "Mean number of MTB colonies", "setting": "[3]; 2.0 ug/ml", "value": 79},
      {"measurement": "Mean number of MTB colonies", "setting": "[3]; 5.0 ug/ml", "value": 90},
      {"measurement": "Mean number of MTB colonies", "setting": "[3]; 10.0 ug/ml", "value": 123},
      {"measurement": "Mean number of MTB colonies", "setting": "[3]; 50.0 ug/ml", "value": "contiguous"},
      {"measurement": "Mean number of MTB colonies", "setting": "[3]; 100 ug/ml", "value": "contiguous"},
      {"measurement": "number of MTB colonies", "setting": "[3]; concentrations from 0.25 to 5.0 μg/ml", "value": "Less than 100"},
      {"measurement": "Dead/total number", "setting": "[4]; single intragastric 800 mg/kg", "value": "0/10"},
      {"measurement": "Dead/total number", "setting": "[4]; single intragastric 1000 mg/kg", "value": "0/10"},
      {"measurement": "% of dead rat pups", "setting": "[4]; single intragastric 800 mg/kg", "value": 0, "unit": "%"},
      {"measurement": "% of dead rat pups", "setting": "[4]; single intragastric 1000 mg/kg", "value": 0, "unit": "%"},
      {"measurement": "shortening of inflammation vs control", "setting": "[5]; topical 100 mg/kg before formalin", "value": 64.5, "unit": "%"},
      {"measurement": "Effect on formalin edema vs control (100)", "setting": "[5]; topical 100 mg/kg, 2 hours before formalin", "value": "−79.9", "unit": "%"},
      {"measurement": "serum Ca", "setting": "[6]; 4-week administration 50 mg/kg", "value": "4.21 ± 0.23", "unit": "mEq/l"},
      {"measurement": "serum K", "setting": "[6]; 4-week administration 50 mg/kg", "value": "3.15 ± 0.15", "unit": "mEq/l"},
      {"measurement": "serum Na", "setting": "[6]; 4-week administration 50 mg/kg", "value": "127.3 ± 2.71", "unit": "mEq/l"},
      {"measurement": "serum Ca", "setting": "[6]; [7]", "value": "4.69 ± 0.24", "unit": "mEq/l"},
      {"measurement": "serum K", "setting": "[6]; [7]", "value": "3.44 ± 0.20", "unit": "mEq/l"},
      {"measurement": "serum Na", "setting": "[6]; [7]", "value": "125.7 ± 3.43", "unit": "mEq/l"}
    ]}
  ]
}
